From US20260043031A1, “COMPOSITIONS AND METHODS FOR INHIBITING ADENYLATE CYCLASE 9 (AC9)” (INSTITUT DE CARDIOLOGIE DE MONTRÉAL, priority 2022, published 2026)

Tests used:
Assay type in all cases: cell-based, human
LDLr = experiment: Western blot of LDLr protein in HepG2 cells; conditions: for LDLr protein expression in human HepG2 cells (% of siScramble): HepG2 transfected with siRNA, Western blot, actin loading control, n=8
Method: (§1) HepG2 (hepatocellular carcinoma) cells were growth in Eagle's minimum essential medium (EMEM). The medium was supplemented with 10% FBS, 100 units/ml penicillin, and 100 μg/ml streptomycin. Cells were cultured in 5% CO2 at 37° C. and were harvested once a week with trypsin-EDTA. For experiments, cells were trypsinized, seeded, and cultured at least for 3 days prior to the assays.
(§2) HepG2 cells were transfected with ADCY9, SREBP2, LDLr or scramble siRNA in the presence of Lipofectamine RNAiMAX in Opti-MEM for 72 h unless otherwise stated.
(§3) For Western blotting, cells were washed with cold PBS and then scraped and lysed in ice-cold lysis buffer (50 mM Tris, pH 7.5, 150 mM NaCl, 1% Triton X-100, 0.1% SDS, 0.5% sodium deoxycholate, 1 mM PMSF, and protease inhibitor cocktail). Lysate was microcentrifugated for 20 min at 4° C. and supernatant was assessed for cell proteins. Proteins ([…]) were separated by sodium dodecyl sulfate-polyacrylamide gel electrophoresis (SDS-PAGE) followed by Western blotting to PVDF membrane.
Protein expression is represented as a percentage of the control, siScramble. n=8. Paired t-test: *=p≤0.05; **=p≤0.01; and ***=p≤0.001, relative to siScramble.

AC9 = experiment: Western blot of AC9 protein after siRNA transfection of HepG2 cells; conditions: HepG2 transfected with siRNA, actin loading control, n=8
Method: as §1, §2, §3
Results were obtained by Western blotting and actin was used as a loading control. Protein expression is represented as a percentage of the control, siScramble. n=8. Paired t-test: *=p≤0.05; **=p≤0.01; and ***=p≤0.001, relative to siScramble.

HepG2 cells [1] = experiment: 3H-CE-LDL cell association assay; conditions: HepG2, siAC9 plus 2 μM H89, 24 h
Method: as §1, §2

ABCA1 = experiment: Western blot of ABCA1 protein in HepG2 cells; conditions: HepG2, siAC9 plus 2 μM H89, 24 h
Method: as §1, §2, §3

HepG2 cells [2] = experiment: Cellular cholesterol efflux toward apo A-I
Method: as §1, §2
Cells were labeled in EMEM containing 2 μCi/ml [1,2-^3H]cholesterol plus 1% FBS for 24 h at 37° C. Then, cells were equilibrated with EMEM containing 0.2% BSA for 18 h at 37° C. with or without H89 or GSK-2033. An efflux assay was performed in the absence or presence of 10 μg/ml of apo A-I. At the end of the incubation, the medium was harvested and cells were solubilized. Medium and cells were counted for radioactivity in a […]. The percentage of efflux was calculated by subtracting the radioactive counts in the medium in the absence of cholesterol acceptors from the radioactive counts in the presence of acceptor and then dividing by the sum of the radioactive counts in the medium plus the cell fraction.

[3] = HepG2, siAC9 plus 2 μM H89, 24 h

Compound: CC(C)c1c(C(=O)Nc2ccccc2)c(-c2ccccc2)c(-c2ccc(F)cc2)n1CC[C@@H](O)C[C@@H](O)CC(=O)O [atorvastatin, reference compound]
- LDLr protein expression, combined treatment (LDLr; HepG2, 300 μM exogenous cAMP plus 5 μM atorvastatin): increased

Compound: ADCY9-2: siRNA, sense SEQ ID NO: 5 CGAAACAGGAAUAGAAGAAUU, antisense SEQ ID NO: 6 UUCUUCUAUUCCUGUUUCGUU; targets ADCY9 mRNA Exon 10 (listed as RNA, chemistry not fully specified)
- AC9 protein expression in human HepG2 cells (% of siScramble) (AC9): 16% ***
- LDLr protein expression in human HepG2 cells (% of siScramble) (LDLr): 122% **

Compound: ADCY9-ID1039: siRNA, sense SEQ ID NO: 1 CCUGAUGAAAGAUUACUUUTT, antisense SEQ ID NO: 2 AAAGUAAUCUUUCAUCAGGCT; targets ADCY9 mRNA Exon 5 (chemistry not fully specified)
- AC9 protein expression in human HepG2 cells (% of siScramble) (AC9): 15% ***
- LDLr protein expression in human HepG2 cells (% of siScramble) (LDLr): 123% *

Compound: ADCY9-4: siRNA, sense SEQ ID NO: 9 GCACCAAGAUCCAGAGCAUUU, antisense SEQ ID NO: 10 AUGCUCUGGAUCUUGGUGCUU; targets ADCY9 mRNA Exon 10 (listed as RNA, chemistry not fully specified)
- AC9 protein expression in human HepG2 cells (% of siScramble) (AC9): 15% ***
- LDLr protein expression in human HepG2 cells (% of siScramble) (LDLr): 150% **

Compound: ADCY9-3: siRNA, sense SEQ ID NO: 7 AGGAAGAGGUCAUAAAGAAUU, antisense SEQ ID NO: 8 UUCUUUAUGACCUCUUCCUUU; targets ADCY9 mRNA Exon 5-6 (listed as RNA, chemistry not fully specified)
- AC9 protein expression in human HepG2 cells (% of siScramble) (AC9): 17% ***
- LDLr protein expression in human HepG2 cells (% of siScramble) (LDLr): 126% *

Compound: ADCY9-1: siRNA, sense SEQ ID NO: 3 CGAAAUGGAAGAUGGGAAAUU, antisense SEQ ID NO: 4 UUUCCCAUCUUCCAUUUCGUU; targets ADCY9 mRNA Exon 2 (listed as RNA, chemistry not fully specified)
- AC9 protein expression in human HepG2 cells (% of siScramble) (AC9): 24% ***
- LDLr protein expression in human HepG2 cells (% of siScramble) (LDLr): 131% **

Compound: O=S(=O)(NCCNC/C=C/c1ccc(Br)cc1)c1cccc2cnccc12 [H89]
- 3H-CE-LDL association in siAC9-treated cells (HepG2 cells [1]): reduction
- ABCA1 protein expression, effect on siAC9-mediated increase (ABCA1): reversed
- LDLr protein expression, effect on siAC9-mediated increase (LDLr; [3]): reversed
- cholesterol efflux in siAC9-treated cells (HepG2 cells [2]; [3]): not

Compound: Cc1cc(C)c(S(=O)(=O)N(Cc2ccc(-c3cccc(S(C)(=O)=O)c3)cc2)Cc2ccc(C(F)(F)F)o2)c(C)c1 [GSK-2033]
- ABCA1-mediated cholesterol efflux, effect on siAC9-mediated increase (HepG2 cells [2]; HepG2, siAC9 plus 5 μM GSK-2033, 24 h): significantly reduce
